# Laboratory results from PubChem BioAssay (NCI).
# Where “and” joins values, the source holds several entries; their conditions need not be identical. Equal values may be shown once.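 All cell lines were grown in 96-well plates and treated with compound for 48 hours. GI50: concentration for 50% inhibition of growth. At the TGI there is no net growth.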
# Experiments:
# Assay in all cases: DTP human tumour cell line panel, 48 h
# [1] = system: UACC-62 melanoma
# [2] = system: SK-MEL-2 melanoma
# [3] = system: SNB-75 CNS
# [4] = system: HT29 colon
# [5] = system: NCI-H460 lung
# [6] = system: SR leukemia
# [7] = system: EKVX NSCLC
# [8] = system: HOP-92 NSCLC
# [9] = system: HS 578T breast
# [10] = system: NCI/ADR-RES ovarian
smiles,measurement,setting,value
CC(C)(C)OC(=O)N1C2CCCC23O[C@@H]1c1cc2c(cc1C3=O)OCO2 (stereo partly specified),TGI,[1],67 µM
same,TGI,[2],> 100 µM
same,TGI,[3],56.8 µM
same,TGI,[4],> 100 µM
same,TGI,[5],> 100 µM
same,TGI,[6],> 100 µM
same,TGI,[7],> 100 µM
same,TGI,[8],> 100 µM
NC(=S)N/N=C1\CCCC\C1=C/c1ccccc1,TGI,[1],> 100 µM
same,TGI,[2],> 100 µM
same,TGI,[3],> 100 µM
same,TGI,[4],50.3 µM
same,TGI,[5],> 100 µM
same,TGI,[7],> 100 µM
same,TGI,[8],> 100 µM
CCOc1ccc(N=Cc2c3ccccc3nc3ccccc23)cc1,TGI,[1],> 100 µM
same,TGI,[2],> 100 µM
same,TGI,[3],> 100 µM
same,TGI,[4],> 100 µM
same,TGI,[5],> 100 µM
same,TGI,[7],> 100 µM
same,TGI,[8],> 100 µM
CCCCCCCCCCCCCCCCCCC1=C(O)C(=O)C=C(OC)C1=O,TGI,[1],> 100 µM
same,TGI,[2],76.5 µM
same,TGI,[3],> 100 µM
same,TGI,[4],> 100 µM
same,TGI,[5],> 100 µM
same,TGI,[6],> 100 µM
same,TGI,[7],> 100 µM
same,TGI,[8],> 100 µM
NCCN.O=C([O-])[O-].O=C([O-])[O-].[Co+3].[K+],GI50,[1],> 100000 nM
same,TGI,[1],> 100 µM
same,GI50,[2],> 100000 nM
same,TGI,[2],> 100 µM
same,GI50,[3],> 100 µM and 72.3 µM
same,TGI,[3],> 100 µM
same,GI50,[4],> 100000 nM
same,TGI,[4],> 100 µM
same,GI50,[5],> 100000 nM
same,TGI,[5],> 100 µM
same,GI50,[7],> 100000 nM
same,TGI,[7],> 100 µM
same,GI50,[8],49400 nM and 75200 nM
same,TGI,[8],> 100 µM
CC(=O)[CH-]C(=O)c1ccccc1.CC(=O)[CH-]C(=O)c1ccccc1.O=S(=O)([O-])c1cc([O-])c2c([O-])cc(S(=O)(=O)[O-])cc2c1.[Na+].[Ti+4],GI50,[1],> 100000 nM
same,TGI,[1],> 100 µM
same,GI50,[2],> 100000 nM
same,TGI,[2],> 100 µM
same,GI50,[3],29.1 µM
same,TGI,[3],87.5 µM
same,GI50,[4],> 100000 nM
same,TGI,[4],> 100 µM
same,GI50,[5],> 100000 nM
same,TGI,[5],> 100 µM
same,GI50,[7],> 100000 nM
same,TGI,[7],> 100 µM
CSc1ccc2c(cc1=O)[C@@H](NC(=O)c1cc(O)c(O)c(O)c1)CCc1cc(O)c(O)c(O)c1-2,TGI,[1],36.8 µM
same,TGI,[3],53.7 µM
same,TGI,[4],48.7 µM
same,TGI,[5],44.3 µM
same,TGI,[6],50.9 µM
same,TGI,[7],56.7 µM
C[P+](C)(C)c1ccccc1,TGI,[1],> 100 µM
same,TGI,[2],> 100 µM
same,TGI,[3],> 100 µM
same,TGI,[4],> 100 µM
same,TGI,[5],> 100 µM
same,TGI,[6],> 100 µM
same,TGI,[7],> 100 µM
same,TGI,[8],> 100 µM
CNC(C)[C@H]1CCC2C3CC=C4C(=O)[C@@H](NC(=O)C=C(C)C)CC[C@]4(C)C3CC[C@@]21C (stereo partly specified),GI50,[1],1840 nM
same,TGI,[1],3.54 µM
same,GI50,[2],2740 nM
same,TGI,[2],6.9 µM
same,GI50,[3],2.26 µM
same,TGI,[3],10.4 µM
same,GI50,[4],358 nM
same,TGI,[4],1.59 µM
same,GI50,[5],1260 nM
same,TGI,[5],2.76 µM
same,GI50,[9],1870 nM
same,TGI,[9],6.82 µM
same,GI50,[10],3440 nM
same,TGI,[10],15 µM
same,GI50,[7],1140 nM
same,TGI,[7],11.2 µM
same,GI50,[8],977 nM
same,TGI,[8],10.3 µM
O=C1CC2CCN(C(=O)c3ccccc3)CC2CCN1 (stereo unspecified),TGI,[1],> 100 µM
same,TGI,[2],60.2 µM
same,TGI,[3],> 100 µM
same,TGI,[4],> 100 µM
same,TGI,[5],> 100 µM
same,TGI,[6],> 100 µM
same,TGI,[7],> 100 µM
same,TGI,[8],> 100 µM
C=CCC1(C)CCCCC1(O)CS(=O)c1ccccc1 (stereo unspecified),TGI,[1],> 100 µM
same,TGI,[3],> 100 µM
same,TGI,[4],> 100 µM
same,TGI,[5],> 100 µM
same,TGI,[6],> 100 µM
same,TGI,[7],> 100 µM
same,TGI,[8],> 100 µM
C1=NC(N(Cc2ccccc2)Cc2ccccc2)N(Cc2ccccc2)N1 (stereo unspecified),TGI,[1],27.2 µM
same,TGI,[2],31.8 µM
same,TGI,[3],62.8 µM
same,TGI,[4],30.9 µM
same,TGI,[5],37.2 µM
same,TGI,[7],56.2 µM
same,TGI,[8],25.6 µM
Nc1ccc(C2=N/C(=C\c3cccc(N)c3)C(=O)O2)cc1,TGI,[1],> 100 µM
same,TGI,[2],> 100 µM
same,TGI,[4],> 100 µM
same,TGI,[6],> 100 µM
same,TGI,[7],> 100 µM
same,TGI,[8],> 100 µM
COc1cc(C(=O)O[C@H](C(N)=O)[C@]2(C)CO2)c2cccc(C)c2c1,GI50,[1],20 nM
same,TGI,[1],0.154 µM
same,GI50,[2],< 10 nM
same,TGI,[2],0.0478 µM
same,GI50,[3],0.933 µM
same,TGI,[3],4.13 µM
same,GI50,[4],< 41.8 nM
same,GI50,[5],395 nM
same,TGI,[5],> 32.1 µM
same,GI50,[9],130 nM
same,TGI,[9],15.5 µM
same,GI50,[10],108 nM
same,TGI,[10],0.507 µM
same,GI50,[7],350 nM
same,TGI,[7],4.61 µM
same,GI50,[8],654 nM
same,TGI,[8],2.28 µM
C=C1C(=O)OC2C1CC(OC(C)=O)/C(C)=C/CCC1(C)OC21 (stereo unspecified),TGI,[1],> 100 µM
same,TGI,[2],> 100 µM
same,TGI,[3],> 100 µM
same,TGI,[4],> 100 µM
same,TGI,[5],> 100 µM
same,TGI,[9],> 100 µM
same,TGI,[10],> 100 µM
same,TGI,[7],> 100 µM
same,TGI,[8],> 100 µM
Cc1ccc(N2C(=O)N(c3ccc(C)cc3)C3(SC=NN3C)C2=O)cc1 (stereo unspecified),TGI,[1],> 100 µM
same,TGI,[3],> 100 µM
same,TGI,[4],> 100 µM
same,TGI,[5],> 100 µM
same,TGI,[6],> 100 µM
same,TGI,[7],> 100 µM
same,TGI,[8],> 100 µM
Cn1cc(-c2csc(-c3cn(C)c4ccc(F)cc34)n2)c2cnccc21,GI50,[1],1740 nM
same,TGI,[1],3.2 µM
same,GI50,[2],1790 nM
same,TGI,[2],3.38 µM
same,GI50,[3],1.4 µM
same,TGI,[3],2.74 µM
same,GI50,[4],1470 nM
same,TGI,[4],3 µM
same,GI50,[5],1970 nM
same,TGI,[5],3.71 µM
same,GI50,[9],2360 nM
same,TGI,[9],5.12 µM
same,GI50,[10],2030 nM
same,TGI,[10],4.02 µM
same,GI50,[7],1870 nM
same,TGI,[7],3.7 µM
same,GI50,[8],1640 nM
same,TGI,[8],3.26 µM
Oc1ccc(Oc2cnc3ccccc3n2)cc1,GI50,[1],> 100000 nM
same,TGI,[1],> 100 µM
same,GI50,[2],> 100000 nM
same,TGI,[2],> 100 µM
same,GI50,[3],60 µM
same,TGI,[3],> 100 µM
same,GI50,[4],> 100000 nM
same,TGI,[4],> 100 µM
same,GI50,[5],> 100000 nM
same,TGI,[5],> 100 µM
same,GI50,[6],78.5 µM
same,TGI,[6],> 100 µM
same,GI50,[10],> 100000 nM
same,TGI,[10],> 100 µM
same,GI50,[7],67000 nM
same,TGI,[7],> 100 µM
CCOC(=O)C(C)(c1c(C)[nH]c2ccccc12)c1c(C)[nH]c2ccccc12,TGI,[1],29.6 µM
same,TGI,[2],38.4 µM
same,TGI,[3],48.6 µM
same,TGI,[4],30.3 µM
same,TGI,[5],38.7 µM
same,TGI,[7],> 100 µM
Cc1c2c(C(N)=O)nccc2c(C)c2c1c1ccccc1n2Cc1ccccc1,TGI,[1],> 100 µM
same,TGI,[2],43.3 µM
same,TGI,[3],39.9 µM
same,TGI,[4],37.1 µM
same,TGI,[5],28.8 µM
same,TGI,[9],31.5 µM
same,TGI,[10],27.9 µM
same,TGI,[7],> 100 µM
same,TGI,[8],25.1 µM
O=C1c2ccccc2C(=O)N1C/C=N/NS(=O)(=O)c1ccc(Br)cc1,TGI,[1],> 100 µM
same,TGI,[2],> 100 µM
same,TGI,[3],> 100 µM
same,TGI,[4],> 100 µM
same,TGI,[5],> 100 µM
same,TGI,[6],> 100 µM
same,TGI,[7],> 100 µM
same,TGI,[8],> 100 µM
